Values joined by “and” are separate entries in the source; they are usually repeats but may differ in a detail not shown here. Equal entries are not always repeated. Active and inactive are the calls of the source. No rule for the calls is given here.
tested on: MDA-MB-435 TRAIL-induced apoptosis potentiation, viability; assay: MDA-MB-435 TRAIL sensitizers, potency – cell-based, analog series, SAR follow-up (AID 1755)

Compound	IC50
CSc1nc(-c2ccccc2)nc(-c2ccccc2OC(C)=O)n1	> 10 µM (inactive)
CSc1nc(-c2ccccc2)nc(C(C)C)n1	> 10 µM (inactive)
CCSc1nc(-c2ccccc2)cc(=O)[nH]1	> 10 µM (inactive)
CSc1nc(-c2ccc(C)cc2)nc(C(Cl)Cl)n1	4.81 µM and 3.27 µM
CCSc1cc(N2CCCC2)nc(-c2ccc(Cl)cc2)n1	> 10 µM (inactive)
CC(Sc1nc(-c2ccccc2)cc(C(F)(F)F)n1)C(=O)N1CCCC1 (stereo not drawn)	> 10 µM (inactive)
CSc1nc(-c2ccccc2)nc(-c2ccccc2)n1	> 10 µM (inactive)
COc1cc(-c2ccccc2)[nH]c(=S)n1	> 10 µM (inactive)

Source: PubChem BioAssay AID1755 (Sanford-Burnham Center for Chemical Genomics, 2009)
